{"source": "patent US10954271B2", "about": "“Anti-microbial peptides” (priority 2014, dated 2021)", "key": {"[1]": {"system": "E. coli"}, "[2]": {"system": "M. smegmatis", "assay": "M. smegmatis adhesion / anti-biofilm assay, counting crystal violet-positive cells", "type": "cell-based", "from_the_text": "A second series of cationic-aromatic AMPs was designed, and linked (via the N-terminus) to linear anti-biofilm peptides. This created a hybrid anti-biofilm/AMP (AB01), with a Gram-positive specific C-terminal di-peptide (dVal-dPro). A model Gram positive organism that rapidly forms biofilms (M. smegmatis; Ojha, A. and G. F. Hatfull, The role of iron in Mycobacterium smegmatis biofilm formation: the exochelin siderophore is essential in limiting iron conditions for biofilm formation but not for planktonic growth. Mol Microbiol, 2007. 66(2): p. 468-83) was used to assess the inhibition of adhesion/anti-biofilm activity of AB01 & two control AMPs, using a 2 day old biofilm.\nThe effect of three AMPs on M. smegmatis adhesion was measured on day 0 (data not shown) & after 2 days of biofilm growth, counting crystal violet-positive cells (FIG. 5; see O'Toole, G. A., Microtiter dish biofilm formation assay. J Vis Exp, 2011(47)). Control bacterial adhesion was designated as 100%, and the effect of an added AMP on the cell count was quantified as a percent of the control. The AMPs included Model 01, an AMP of the (RW)n series, (RW)4: [17]; AM11, a cyclized analog of the (RW)n series c(RW)3; and AB01, a hybrid of a cyclized AMP and a linear anti-biofilm peptide."}, "[3]": {"system": "E. coli", "assay": "Anti-microbial activity, concentration needed to inhibit 50% of bacterial division (IC50)", "type": "cell-based", "settings": "for relative specificity Gram-positive versus Gram-negative: from IC50 against E. coli and B. subtilis, Table 1", "protocol": "(§1) Further, a set of the anti-microbial peptides described herein were tested for their anti-microbial activity on both Gram-positive and Gram-negative bacteria. […] Unexpectedly, it was further observed that the C-terminal residues (denoted by bold font) selectively target gram-negative or gram-positive bacteria, as indicated.\n(§2) Anti-microbial activity is reported as the concentration needed to inhibit 50% of bacterial division (ICso, a standard used in the AMP field). […] In contrast, Opt 3-5 have a Phe for Pro substitution in the C-terminal di-peptide, which produces relatively specificity for Gram-negative organisms (e.g. E. coli). Melittin is a cationic-hydrophobic AMP that served as anti-microbial positive control. Agglutination, an attribute assisting in the clearance of bacterial cells during infection, was assessed via microscopy, and was present with all five AMPs."}, "[4]": {"system": "B. subtilis", "assay": "Anti-microbial activity, concentration needed to inhibit 50% of bacterial division (IC50)", "type": "cell-based", "protocol": "as §1, §2"}, "[5]": {"system": "Gram-positive and Gram-negative bacteria", "assay": "Membrane disruption and cell agglutination assessed via microscopy", "type": "cell-based", "protocol": "as §1, §2\n(§3) (1) Microscopy. Bacteria can be treated with dilutions of AMPs were directly analyzed via microscopy for membrane disruption phenotypes, including cell agglutination, cell lysis, and cell elongation/septum disruption. Cells can be also monitored for septum inhibition and elongation through use of the membrane dye FM5-95 and DAPI. Additionally the cells can be imaged and stained with the Life Technologies LIVE/DEAD® BacLight™ Bacterial Viability Kit For killing kinetics of the anti-microbial peptides.\n(2) Agglutination and Protein Aggregation. Using the antimicrobial 96 well assay described above, imaging of the 96 well plate and can provide a method for the determination of the MAC (minimum agglutination concentration) for the bacteria, as described. Torrent et al., PLoS Pathogens 8(11): e1003005 (2012)."}, "[6]": {"system": "Gram-positive and Gram-negative bacteria", "assay": "Non-membrane activity (mode of action: septum inhibition, protein aggregation, cell division)", "type": "cell-based", "protocol": "as §1\nCore sequences were cyclized to enhance druggability and anti-microbial activity. Multiple cationic residues increased binding to anionic membrane and intracellular structures. […] The C-terminal di-peptides in these AMPs were used for their ability to enhance oral activity in peptides. It was discovered that they also directed relative anti-microbial activity towards either Gram-positive or negative organisms (Table 1 and FIG. 5). These AMPs appear to have multiple mechanisms of action (Table 1), potentially mediated by specific binding to the bacterial membrane, and their intracellular accumulation (data not shown). In essence, these AMPs are a form of combination therapy.\nas §3"}, "[7]": {"settings": "orally administered, canines (beagles)", "from_the_text": "We further conducted a preliminary study in a large animal canine model to assess cardiovascular and hematologic safety and clearance of the peptide TCAM207 (SEQ NO: 209) from plasma over a multiple day dosing. Male and female purpose bred beagles were randomized to treatment and instrumented with Holter 9 lead electrocardiograph (ECG) jackets and non-invasive oscillographic paw blood pressure monitoring (emkaPAC 4G telemetry). ECG and BP signals were sampled at 500 Hz using GLP compliant software (IOX, EMKA). ECG signals were saved continuously and blood pressure determined hourly. Blood samples were taken before and after 14 days of SC or oral drug administration for complete chemistry panel and CBC analysis. Samples were taken 1, 2, 4, 8, 12, and 24 hours after drug administration on days 1 and 5 for assay of plasma IIP to assess PK profile. After a 1-2 week washout, dogs were randomized to the other arm of the study."}, "[8]": {"settings": "normal beagles (n=4), 5 days of 5× therapeutic dose"}}, "note": "Positions of bridges follow the written chain, without caps; N, C: chain ends. Non-standard residues stand in square brackets, D forms with d. Residues, ends and D or L forms follow the SMILES beside them. d2Nal = N[C@H](Cc1ccc2ccccc2c1)C(=O)O; Nle = CCCC[C@H](N)C(=O)O", "data": [{"compound": "CC[C@H](C)[C@H](NC(=O)[C@H](CCCNC(=N)N)NC(=O)[C@H](Cc1ccccc1)NC(C)=O)C(=O)N[C@@H](CCCNC(=N)N)C(=O)N[C@H](C(=O)N[C@@H](CCCNC(=N)N)C(=O)N[C@H](C(=O)N[C@H]1CC(=O)NCCCC[C@@H](C(=O)N[C@@H](C(=O)N2CCC[C@@H]2C(N)=O)C(C)C)NC(=O)[C@H](CCCNC(=N)N)NC(=O)[C@H](Cc2c[nH]c3ccccc23)NC(=O)[C@H](Cc2ccccc2)NC(=O)[C@@H](Cc2ccc3ccccc3c2)NC(=O)[C@H](CCCNC(=N)N)NC(=O)[C@H](CCCNC(=N)N)NC1=O)C(C)C)C(C)C", "note": "[AB01, Ac-FRIRVRV-c[Asp-RR-dNal(21-FWR-Lys]-dVal-dPro-CONH2] (Ac-FRIRVRVDRR[d2Nal]FWRK[dV][dP]-NH2; lactam 8-15)", "values": [{"measurement": "MIC for E. coli", "setting": "[1]", "result": 25, "unit": "µM"}, {"measurement": "concentration that prevented adhesion in a 2 day old biofilm", "setting": "[2]; 2 day old biofilm", "result": "3 to 5", "unit": "µM"}, {"measurement": "potency in inhibition of adhesion/anti-biofilm activity relative to Model 01", "setting": "[2]; 2 day old biofilm", "result": "~100", "unit": "fold"}, {"measurement": "concentration that prevented adhesion on day 0", "setting": "[2]", "result": 1, "unit": "µM"}]}, {"compound": "CC[C@H](C)[C@H](NC(=O)CN)C(=O)NCC(=O)N[C@@H](C)C(=O)N[C@H](C(=O)N[C@@H](CC(C)C)C(=O)N[C@@H](CCCCN)C(=O)N[C@H](C(=O)N[C@@H](CC(C)C)C(=O)N[C@H](C(=O)N[C@H](C(=O)NCC(=O)N[C@@H](CC(C)C)C(=O)N1CCC[C@H]1C(=O)N[C@@H](C)C(=O)N[C@@H](CC(C)C)C(=O)N[C@H](C(=O)N[C@@H](CO)C(=O)N[C@@H](Cc1c[nH]c2ccccc12)C(=O)N[C@H](C(=O)N[C@@H](CCCCN)C(=O)N[C@@H](CCCNC(=N)N)C(=O)N[C@@H](CCCCN)C(=O)N[C@@H](CCCNC(=N)N)C(=O)N[C@@H](CCC(N)=O)C(=O)N[C@@H](CCC(N)=O)C(N)=O)[C@@H](C)CC)[C@@H](C)CC)[C@@H](C)O)[C@@H](C)O)C(C)C)C(C)C", "note": "[Melittin, reference compound]", "values": [{"measurement": "IC50, E. coli; μg/mL", "setting": "[3]; concentration needed to inhibit 50% of bacterial division", "result": 0.7, "unit": "µg/mL"}, {"measurement": "IC50 B. subtilis", "setting": "[4]", "result": 20.8, "unit": "µg/mL"}, {"measurement": "Membrane Disruption?", "setting": "[5]", "result": "Yes"}, {"measurement": "Non-Membrane Activity?", "setting": "[6]", "result": "None observed"}]}, {"compound": "CCCC[C@H](NC(C)=O)C(=O)N[C@H]1CC(=O)NCCCC[C@@H](C(=O)N[C@@H](C(=O)N2CCC[C@@H]2C(N)=O)C(C)C)NC(=O)[C@@H](Cc2ccc3ccccc3c2)NC(=O)[C@H](CCCNC(=N)N)NC(=O)[C@@H](Cc2ccc3ccccc3c2)NC(=O)[C@@H]2CCCN2C(=O)[C@H](CCCNC(=N)N)NC1=O", "note": "[Opt 1] (Ac-[Nle]DRP[d2Nal]R[d2Nal]K[dV][dP]-NH2; lactam 2-8)", "values": [{"measurement": "relative specificity Gram-positive versus Gram-negative", "setting": "[3]", "result": "relatively specific for B. subtilis"}, {"measurement": "Membrane Disruption?", "setting": "[5]", "result": "Yes, and Agglutination"}]}, {"compound": "CCCC[C@H](NC(C)=O)C(=O)N[C@H]1CC(=O)NCCCC[C@@H](C(=O)N[C@@H](C(=O)N2CCC[C@@H]2C(N)=O)C(C)C)NC(=O)[C@H](CCCNC(=N)N)NC(=O)[C@@H](Cc2ccc3ccccc3c2)NC(=O)[C@H](CCCNC(=N)N)NC(=O)[C@@H](Cc2ccc3ccccc3c2)NC(=O)[C@@H]2CCCN2C(=O)[C@H](CCCNC(=N)N)NC1=O", "note": "[Opt 2] (Ac-[Nle]DRP[d2Nal]R[d2Nal]RK[dV][dP]-NH2; lactam 2-9)", "values": [{"measurement": "relative specificity Gram-positive versus Gram-negative", "setting": "[3]", "result": "relatively specific for B. subtilis"}, {"measurement": "Membrane Disruption?", "setting": "[5]", "result": "Yes, and Agglutination"}]}, {"compound": "CCCC[C@H](NC(C)=O)C(=O)N[C@H]1CC(=O)NCCCC[C@@H](C(=O)N[C@H](Cc2ccccc2)C(=O)N[C@@H](C(N)=O)C(C)C)NC(=O)[C@H](Cc2c[nH]c3ccccc23)NC(=O)[C@H](CCCNC(=N)N)NC(=O)[C@@H](Cc2ccc3ccccc3c2)NC(=O)[C@@H]2CCCN2C(=O)[C@H](CCCNC(=N)N)NC1=O", "note": "[Opt 3] (Ac-[Nle]DRP[d2Nal]RWK[dF][dV]-NH2; lactam 2-8)", "values": [{"measurement": "Membrane Disruption?", "setting": "[5]", "result": "Yes, and Agglutination"}, {"measurement": "Non-Membrane Activity?", "setting": "[6]", "result": "None observed"}]}, {"compound": "CCCC[C@H](NC(C)=O)C(=O)N[C@H]1CC(=O)NCCCC[C@@H](C(=O)N[C@@H](Cc2ccccc2)C(=O)N[C@H](C(N)=O)C(C)C)NC(=O)[C@H](Cc2c[nH]c3ccccc23)NC(=O)[C@H](CCCNC(=N)N)NC(=O)[C@@H](Cc2ccc3ccccc3c2)NC(=O)[C@@H]2CCCN2C(=O)[C@H](CCCNC(=N)N)NC1=O", "note": "[Opt 4] (Ac-[Nle]DRP[d2Nal]RWKFV-NH2; lactam 2-8)", "values": [{"measurement": "Membrane Disruption?", "setting": "[5]", "result": "Yes, and Agglutination"}]}, {"compound": "CCCC[C@H](NC(C)=O)C(=O)N[C@H]1CC(=O)NCCCC[C@@H](C(=O)N[C@H](C(=O)N[C@@H](Cc2ccccc2)C(N)=O)C(C)C)NC(=O)[C@H](Cc2c[nH]c3ccccc23)NC(=O)[C@H](CCCNC(=N)N)NC(=O)[C@@H](Cc2ccc3ccccc3c2)NC(=O)[C@@H]2CCCN2C(=O)[C@H](CCCNC(=N)N)NC1=O", "note": "[Opt 5] (Ac-[Nle]DRP[d2Nal]RWKVF-NH2; lactam 2-8)", "values": [{"measurement": "Membrane Disruption?", "setting": "[5]", "result": "Yes, and Agglutination"}, {"measurement": "Non-Membrane Activity?", "setting": "[6]", "result": "Altered cell"}]}, {"compound": "(RW)4 [Model-01, reference compound]", "values": [{"measurement": "concentration that prevented adhesion in a 2 day old biofilm", "setting": "[2]; 2 day old biofilm", "result": "≥ 100", "unit": "µM"}, {"measurement": "concentration that prevented adhesion on day 0", "setting": "[2]", "result": 10, "unit": "µM"}]}, {"compound": "Ac-[Nle]DP[d2Nal]RWK[dV][dP]-NH2 (lactam 2-7) [TCAM207]", "values": [{"measurement": "time the peptide was stable and remained in the plasma", "setting": "[7]", "result": "up to 24 hrs"}, {"measurement": "RBC casts", "setting": "[8]", "result": "no RBC casts were noted"}, {"measurement": "change in red blood cell (RBC) count, hemoglobin (Hg), and hematocrit (Hct)", "setting": "[8]", "result": "slight (statistically insignificant) decreases in all parameters"}]}]}
